Measured values reported in patent US5968910A, “Compositions containing two or three inhibitors of different HIV reverse transcriptases” (priority 1994, dated 1999).
pIC50: −log10 of the molar value. In brackets after ≈: the same amount, converted by molar mass. Read-outs that look alike come from different tables or passages of the source.

Experiments:
HIV-1(IIIB) (WT) = assay: microbe, parasite or virus in culture; type: cell-based; settings: Human immunodeficiency virus 1, IIIB, CCRF-CEM
In short: (§1)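 Syncytium formation read out after 4 days at 37° C. Cultures: CEM cells, 250,000/ml, infected at 100 50% cell culture infective doses/ml and added to compound dilutions.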

HIV-1/I(0.1) 103-Asn = assay: Sensitivity of mutant HIV-1 strain in CEM cell cultures; type: cell-based; settings: Human immunodeficiency virus 1, CCRF-CEM; Table 5; read-out: EC50
In short: as §1

HIV-1/II(0.1) 100-Ile = assay: as above; type: cell-based; settings: Human immunodeficiency virus 1, CCRF-CEM; Table 5; read-out: EC50
In short: as §1

HIV-1/III(0.1) 103-Asn = assay: as above; type: cell-based; settings: Human immunodeficiency virus 1, CCRF-CEM; Table 5; read-out: EC50
In short: as §1

HIV-1/IV(0.1) 103-Thr = assay: as above; type: cell-based; settings: Human immunodeficiency virus 1, CCRF-CEM; Table 5; read-out: EC50
In short: as §1

HIV-1/Nev (106-Ala) = assay: as above; type: cell-based; settings: Human immunodeficiency virus 1, CCRF-CEM; CEM cells, Table 1; read-out: 50% Effective Concentration
In short: as §1

HIV-1/Pyr (181-Cys) = assay: as above; type: cell-based; settings: Human immunodeficiency virus 1, CCRF-CEM; CEM cells, Table 1; read-out: 50% Effective Concentration
In short: as §1

[1] = test system: HIV-1/TIBO R82150 (100-Ile); assay: as above; type: cell-based; settings: Human immunodeficiency virus 1, CCRF-CEM; CEM cells, Table 1; read-out: 50% Effective Concentration
In short: as §1

[2] = test system: HIV-1/TIBO R82913 (103-Asn); assay: as above; type: cell-based; settings: Human immunodeficiency virus 1, CCRF-CEM; CEM cells, Table 1; read-out: 50% Effective Concentration
In short: as §1

[3] = test system: HIV-1/TSAO-m^3 T (138-Lys); assay: as above; type: cell-based; settings: Human immunodeficiency virus 1, CCRF-CEM; CEM cells, Table 1; read-out: 50% Effective Concentration
In short: as §1

[4] = test system: HIV-1/V(0.1) 101-Ile + 141-Glu; assay: as above; type: cell-based; settings: Human immunodeficiency virus 1, CCRF-CEM; Table 5; read-out: EC50
In short: as §1

HIV-1/V(0.5) 103-Asn = assay: as above; type: cell-based; settings: Human immunodeficiency virus 1, CCRF-CEM; Table 5; read-out: EC50
In short: as §1

HIV-1 RT (WT) = HIV-1 RT (WT) (Human immunodeficiency virus type 1 group M subtype B, UniProt P03366); assay: biochemical
In short: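 Inhibition read as reduced incorporation of [2,8-³H]dGTP (2.95 μM) into acid-precipitable product on a poly(C).oligo(dG) template/primer (0.1 mM). Recombinant RT, test compounds in 5-fold dilutions; 30 min, 37° C, pH 7.8 Tris buffer with 5 mM Mg2+, 150 mM KCl.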

HIV-1(IIIB) = assay: Knock-out concentrations: breakthrough of HIV-1(IIIB)-induced cytopathicity in CEM cell cultures; type: cell-based; settings: for activity at 0.1 µg/mL / activity at 0.5 µg/mL / activity at 2.5 µg/mL: Human immunodeficiency virus 1, IIIB, CCRF-CEM, read-out: HIV-1-induced cytopathicity in cell culture; for activity at 0.1 µg/mL: 0.1 μg/ml; for activity at 0.5 µg/mL: 0.5 μg/ml; for activity at 2.5 µg/mL: 2.5 μg/ml
In short: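 CEM cells in RPMI 1640 with 10% FBS infected with HIV-1(IIIB) at ~1000× CCID50, subcultured every 3–4 days into fresh uninfected cells with drug held constant for 10 subcultivations (35 days), then ≥5 drug-free passages. Breakthrough scored by syncytium formation. Combinations used the two lowest single-drug starting concentrations.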

[5] = 936 h, day 39 post infection, compound absent from day 35
[6] = 1008 h, day 42 post infection, compound absent from day 35
[7] = 1104 h, day 46 post infection, compound absent from day 35
[8] = 1176 h, day 49 post infection, compound absent from day 35
[9] = 1272 h, day 53 post infection, compound absent from day 35

Cc1occc1C(=S)Nc1ccc(Cl)c(C(=O)OC2CCCCC2)c1 [Compound III]
EC50 (HIV-1(IIIB) (WT); CEM cells, Table 1, read-out: 50% Effective Concentration): 0.004 µg/mL (≈ 0.0106 µM) | EC50 (HIV-1(IIIB) (WT); HIV-1 (III8), Table 5, read-out: EC50): 0.004 µg/mL (≈ 0.0106 µM) | IC50 (HIV-1(IIIB) (WT); range stated for Compounds I-V together, read-out: 50% inhibitory concentration, HIV-1(IIIB) replication in CEM cells): 0.004 to 0.05 µg/mL (≈ 0.0106 to 0.132 µM) | EC50 (HIV-1/I(0.1) 103-Asn): 0.3 µg/mL (≈ 0.794 µM) | EC50 (HIV-1/II(0.1) 100-Ile): 0.87 µg/mL (≈ 2.3 µM) | EC50 (HIV-1/III(0.1) 103-Asn): 0.16 µg/mL (≈ 0.423 µM) | EC50 (HIV-1/IV(0.1) 103-Thr): 1.1 µg/mL (≈ 2.91 µM) | EC50 (HIV-1/Nev (106-Ala)): 0.057 µg/mL (≈ 0.151 µM) | EC50 (HIV-1/Pyr (181-Cys)): 0.07 µg/mL (≈ 0.185 µM) | EC50 [1]: 0.17 µg/mL (≈ 0.45 µM) | EC50 [2]: 0.7 µg/mL (≈ 1.85 µM) | EC50 [3]: 0.035 µg/mL (≈ 0.0926 µM) | EC50 [4]: 0.05 µg/mL (≈ 0.132 µM) | EC50 (HIV-1/V(0.5) 103-Asn): 0.85 µg/mL (≈ 2.25 µM) | pIC50 (HIV-1 RT (WT); range stated for the compounds together, poly(C).oligo(dG), 2.95 μM [2,8-3H]dGTP, read-out: IC50 on recombinant HIV-1 RT): 6.69 to 7.32 | IC50 (HIV-1 RT (WT); substrate [2,8-3H]dGTP 2.95 μM, template poly(rC)oligo(dG), read-out: IC50, anti-HIV-1 RT (WT) activity (converted)): 146 nM | prevention of virus breakthrough, fold more efficient than BHAP (HIV-1(IIIB)): at least 5 fold | prevention of virus breakthrough, fold more efficient than nevirapine (HIV-1(IIIB)): ≥ 25 fold | activity at 0.1 µg/mL (HIV-1(IIIB); 96 h, day 4 post infection): 0% | activity at 0.5 µg/mL (HIV-1(IIIB); 96 h, day 4 post infection): 0% | activity at 2.5 µg/mL (HIV-1(IIIB); 96 h, day 4 post infection): 0% | activity at 0.1 µg/mL (HIV-1(IIIB); 192 h, day 8 post infection): 0% | activity at 0.5 µg/mL (HIV-1(IIIB); 192 h, day 8 post infection): 0% | activity at 2.5 µg/mL (HIV-1(IIIB); 192 h, day 8 post infection): 0% | activity at 0.1 µg/mL (HIV-1(IIIB); 264 h, day 11 post infection): 0% | activity at 0.5 µg/mL (HIV-1(IIIB); 264 h, day 11 post infection): 0% | activity at 2.5 µg/mL (HIV-1(IIIB); 264 h, day 11 post infection): 0% | activity at 0.1 µg/mL (HIV-1(IIIB); 336 h, day 14 post infection): 6.2% | activity at 0.5 µg/mL (HIV-1(IIIB); 336 h, day 14 post infection): 0% | activity at 2.5 µg/mL (HIV-1(IIIB); 336 h, day 14 post infection): 0% | activity at 0.1 µg/mL (HIV-1(IIIB); 408 h, day 17 post infection): 50% | activity at 0.5 µg/mL (HIV-1(IIIB); 408 h, day 17 post infection): 0% | activity at 2.5 µg/mL (HIV-1(IIIB); 408 h, day 17 post infection): 0% | activity at 0.1 µg/mL (HIV-1(IIIB); 504 h, day 21 post infection): 100% | activity at 0.5 µg/mL (HIV-1(IIIB); 504 h, day 21 post infection): 0% | activity at 2.5 µg/mL (HIV-1(IIIB); 504 h, day 21 post infection): 0% | activity at 0.1 µg/mL (HIV-1(IIIB); 600 h, day 25 post infection): 100% | activity at 0.5 µg/mL (HIV-1(IIIB); 600 h, day 25 post infection): 0% | activity at 2.5 µg/mL (HIV-1(IIIB); 600 h, day 25 post infection): 0% | activity at 0.1 µg/mL (HIV-1(IIIB); 672 h, day 28 post infection): 100% | activity at 0.5 µg/mL (HIV-1(IIIB); 672 h, day 28 post infection): 0% | activity at 2.5 µg/mL (HIV-1(IIIB); 672 h, day 28 post infection): 0% | activity at 0.1 µg/mL (HIV-1(IIIB); 768 h, day 32 post infection): 100% | activity at 0.5 µg/mL (HIV-1(IIIB); 768 h, day 32 post infection): 0% | activity at 2.5 µg/mL (HIV-1(IIIB); 768 h, day 32 post infection): 0% | activity at 0.1 µg/mL (HIV-1(IIIB); 840 h, day 35 post infection): 100% | activity at 0.5 µg/mL (HIV-1(IIIB); 840 h, day 35 post infection): 0% | activity at 2.5 µg/mL (HIV-1(IIIB); 840 h, day 35 post infection): 0% | activity at 0.1 µg/mL (HIV-1(IIIB); [5]): 100% | activity at 0.5 µg/mL (HIV-1(IIIB); [5]): 0% | activity at 2.5 µg/mL (HIV-1(IIIB); [5]): 0% | activity at 0.1 µg/mL (HIV-1(IIIB); [6]): 100% | activity at 0.5 µg/mL (HIV-1(IIIB); [6]): 0% | activity at 2.5 µg/mL (HIV-1(IIIB); [6]): 0% | activity at 0.1 µg/mL (HIV-1(IIIB); [7]): 100% | activity at 0.5 µg/mL (HIV-1(IIIB); [7]): 0% | activity at 2.5 µg/mL (HIV-1(IIIB); [7]): 0% | activity at 0.1 µg/mL (HIV-1(IIIB); [8]): 100% | activity at 0.5 µg/mL (HIV-1(IIIB); [8]): 0% | activity at 2.5 µg/mL (HIV-1(IIIB); [8]): 0% | activity at 0.1 µg/mL (HIV-1(IIIB); [9]): 100% | activity at 0.5 µg/mL (HIV-1(IIIB); [9]): 0% | activity at 2.5 µg/mL (HIV-1(IIIB); [9]): 0% | concentration at which virus emerged (virus breakthrough) (HIV-1(IIIB); tested at 0.1, 0.5 and 2.5 μg/ml, 35 days): 0.1 µg/mL
